The source of these data is PMC7023466, “Novel N,N′-Disubstituted Acylselenoureas as Potential Antioxidant and Cytotoxic Agents” (Antioxidants, 2020).

Where two headings read alike, the source gives them in different places. A value given as a limit tells only on which side of the number the result lay.

For experiment [1], the system named is HT-29 cells. In words: Protective effects against H2O2-induced oxidative stress (MTT). It counts as cell-based, human. The conditions noted are these: for increase fold of cell survival: compound 0.03 mg/mL, 12 h. As for the experimental part:
An H2O2-induced oxidative damage model on HT-29 cells was established, and the cell viability was evaluated by MTT assay, as a measurement of the antioxidant activity of the compounds. Asc was used as a positive control. Briefly, 1 × 10^4 HT-29 cells per well were grown in 96-well plates. After 12 h of incubation, DMSO; 4b, 8c, 9c, and 10b compounds; or Asc were added to each well at concentrations of 0.03 and 0.003 mg/mL, and incubated for 1 h. Subsequently, H2O2 (200, 250, and 300 µM) was added and the cells were incubated for 12 h to induce cell damage. An MTT assay was performed as mentioned previously. For each treatment, the mean cell viability was calculated from three independent experiments. The DMSO-treated controls were assigned with a cell viability value of 100% (Vcontrol). The results are expressed as the increase fold of cell survival, as follows:(3) Increase fold of cell survival = (Vsample−Vsample + H2O2)/VControl−VH2O2 where Vsample refers to the viability of the cells only treated with the corresponding compound, VH2O2 refers to the viability of the HT-29 cells exposed to H2O2, and Vsample + H2O2 refers to the cell survival of each treatment with a compound and H2O2. The data are expressed as increase fold of cell survival ± standard error of the mean (SEM) in at least three independent experiments performed in quadruplicates.

Experiment [2] can be described thus: DPPH radical scavenging assay. Particulars: 0.003 mg/mL. As to the method: DPPH assay was performed as described by Svinyarov. Briefly, each compound was initially dissolved in absolute methanol at a concentration of 1 mg/mL, and serial dilutions were prepared. Ascorbic acid (Asc), a well-known and potent antioxidant, was used as a positive control. A methanolic solution (100 µM) of DPPH^• was prepared daily and […]. The absorbance measurements of this solution were needed in order to check the stability of the radical through the time of analysis. Then, 100 µL of DPPH in methanol were added to 100 µL of the compounds’ solutions, and the decolorization of the purple radical to the yellow reduced form was followed at 517 nm. Determinations were recorded at several time intervals. All of the measurements were carried out in triplicate. The results were expressed as the percentage of the radical scavenged, calculated using the following formula:(1) % DPPH radical scavenging = Acontrol−Asample/Acontrol × 100 where Acontrol refers to the absorbance of the negative control and Asample refers to the absorbance of the tested compounds. The results are expressed as percentage of DPPH radical scavenging ± standard deviation (SD).

The test system of experiment [3] is HT-29 cells. Nature of the experiment: MTT cell viability assay, HT-29. The conditions noted are these: Homo sapiens, 48 h, read-out: Growth (%) HT-29. The class given is cell-based. As to the method: (§1) The cell viability assay of each compound was carried out using the MTT assay. Each compound was dissolved in dimethyl sulfoxide (DMSO) at a concentration of 0.01 M. Serial dilutions were prepared with a non-supplemented culture medium. The effect of each compound on the cell viability was determined at two different concentrations (10 and 50 µM) in MCF-7, HTB-54, and HT-29 cells. In addition, the selected compounds were tested at six different concentrations between 0.1–100 µM in MCF-7, T47D, H1299, HTB-54, and 184B5 cells.
(§2) Briefly, 1 × 10^4 tumor cells/well or 2 × 10^4 non-tumorigenic cells/well were grown in 96-well plates for 12 h. Then, these cells were incubated with either DMSO (control) or a different concentration of each of the tested compounds for 48 h. Three hours before the termination point, 20 µL of MTT were added to measure the cellular viability. The resultant formazan crystals were dissolved in 50 µL of DMSO, and the absorbance was measured at 570 and 630 nm. The results are expressed as IC50, the half maximal inhibitory concentration. This value was calculated using OriginPro 8.5.1. software (OriginLab, Northampton, MA, USA) by nonlinear curve fitting. Furthermore, the selectivity index (SI) was calculated as the ratio of the IC50 values determined for the non-malignant and the tumor cells (IC50 (184B5)/IC50 (MCF-7). The data were obtained from at least three independent experiments performed in quadruplicates.

For another experiment, the system named is HTB-54 cells. Nature of the experiment: MTT cell viability assay, HTB-54. The class given is cell-based. The conditions noted are these: Homo sapiens, 48 h; for activity at 10 µM / activity at 50 µM: read-out: Growth (%) HTB-54. As for the experimental part: as §1, §2
For another experiment, the system named is MCF-7 cells. Nature of the experiment: MTT cell viability assay, MCF-7. It counts as cell-based, human. Particulars: for activity at 10 µM / activity at 50 µM: read-out: Growth (%) MCF-7; for reduction of cell growth: in at least one of the cell lines (MCF-7, HT-29, HTB-54). As to the method: as §1, §2
Experiment [4] can be described thus: ABTS radical scavenging assay. The conditions noted are these: for ABTS radical scavenging: 0.03 mg/mL, after the incubation time; for ABTS radical scavenging activity compared with controls: 0.003 mg/mL. As to the method: ABTS radical scavenging was assayed with a colorimetric test as well [59]. Briefly, ABTS was dissolved in deionized water at 1 mg/mL and oxidized to ABTS^+• with potassium persulfate (2.45 mM final concentration). This reaction mixture was kept overnight at room temperature in the dark. After radical generation, ABTS^+• was diluted with 50% ethanol until an absorbance of 0.70 ± 0.02 at 734 nm for measurements. The tested compounds were solved in absolute ethanol at a concentration of 1 mg/mL, and 20 µL of this solution were added to 180 µL of the diluted ABTS^+•. After 6 min of incubation, the absorbance at 734 nm was recorded using 50% ethanol as the blank. Trolox and Asc were used as the positive controls. All of the determinations were carried out in triplicate. The same time intervals as in the DPPH assay were also measured. The ability to scavenge ABTS^+• was calculated using the following formula:(2) % ABTS radical scavenging=Acontrol−Asample/Acontrol × 100 where Acontrol refers to the absorbance of the negative control and Asample refers to the absorbance of the tested compounds. The results are expressed as percentage of ABTS radical scavenging ± SD.

The next experiment concerns 184B5 cells. In words: MTT cell viability assay, non-malignant 184B5. The class given is cell-based. Particulars: Homo sapiens, non-malignant breast cells, 48 h. As to the method: as §1, §2
The next experiment concerns T47D cells. Nature of the experiment: MTT cell viability assay, T47D. The class given is cell-based. The conditions noted are these: Homo sapiens, breast cancer cells, 48 h. As to the method:
as §1, §2

The subject of the next experiment is H1299 cells. Nature of the experiment: MTT cell viability assay, H1299. The conditions noted are these: Homo sapiens, NCI-H1299, lung cancer cells, 48 h. The class given is cell-based. As for the experimental part: as §1, §2
Details of experiment [5]: method as in doi:10.1007/s11172-013-0228-5. Particulars: conditions not tested by the authors; cited from earlier work.
Where [6] appears, read: Homo sapiens, MCF7, 10 μM, 48 h.
Where [7] appears, read: Homo sapiens, MCF7, 50 μM, 48 h.

For `O=C1O[C@H]([C@@H](O)CO)C(O)=C1O` [Asc, Ascorbic acid, reference compound], the “protective effect against H2O2-induced oxidative stress” value in the experiment with HT-29 cells [1] (0.003 mg/mL) is “disappeared”.

As for `O=C(NC(=[Se])Nc1ccccc1)c1ccccc1Cl` [Compound 2a], the DPPH radical scavenging result in experiment [2] is listed as “around 40%”. Moreover, the activity at 10 µM in the experiment with HT-29 cells [3] was 79.1%; in the experiment with HTB-54 cells (HTB-54), 91.3%; in the experiment on MCF-7 cells (setting [6]), 93.6%. Also, the activity at 50 µM is 37.8% with HT-29 cells [3], 65.6% with HTB-54 cells (HTB-54) and 30.5% in the experiment on MCF-7 cells (setting [7]).

With `CSc1ccc(Cl)c(C(=O)NC(=[Se])Nc2ccc(C)cc2)c1` [Compound 3b], the DPPH radical scavenging result in experiment [2] was “around 40%”. Also, the values for the activity at 10 µM in the experiment on HT-29 cells [3], with HTB-54 cells (HTB-54) and in the experiment on MCF-7 cells (setting [6]) were 64.7%, 45.1% and 64.2%, respectively. Further, the results for the activity at 50 µM in the experiment on HT-29 cells [3], with HTB-54 cells (HTB-54) and in the experiment on MCF-7 cells (setting [7]) were 42.5%, 22.2% and 24.5%, respectively.

Regarding `Cc1ccc(NC(=[Se])NC(=O)C=Cc2ccccc2)cc1` [Compound 8b], the values for the activity at 10 µM with HT-29 cells [3], with HTB-54 cells (HTB-54) and in the experiment on MCF-7 cells (setting [6]) were 95.3%, 85.9% and 95.5%, respectively. The activity at 50 µM with HT-29 cells [3] worked out at 76.9%; in the experiment on HTB-54 cells (HTB-54), 72.8%; with MCF-7 cells (setting [7]) it was 82.3%. Further, in experiment [4], the ABTS radical scavenging result was “below 60%”.

`COc1ccc(NC(=[Se])NC(=O)C=Cc2ccccc2)cc1` [Compound 8c]: the activity at 10 µM in the experiment on HT-29 cells [3] stood at 73.4%; in the experiment on HTB-54 cells (HTB-54) it was 64.1%; in the experiment with MCF-7 cells (setting [6]), 70.2%. Besides, the activity at 50 µM with HT-29 cells [3] is 42.5%; in the experiment on HTB-54 cells (HTB-54), 19.3%; in the experiment with MCF-7 cells (setting [7]), 5.7%. For the same molecule, the “ABTS radical scavenging activity compared with controls” value in [4] is recorded as “potent radical scavenging activity similar to Trolox”.

`COc1ccc(NC(=[Se])NC(=O)c2cc3ccccc3s2)cc1` [Compound 9c]: the activity at 10 µM in the experiment with HT-29 cells [3] stood at 47.9%; with HTB-54 cells (HTB-54) it was 64.2%; in the experiment on MCF-7 cells (setting [6]) it was 63%. Also, the activity at 50 µM in the experiment with HT-29 cells [3] turned out to be 37.3%; in the experiment on HTB-54 cells (HTB-54), 7.1%; in the experiment with MCF-7 cells (setting [7]) it was 49.2%. Besides, the entries for the “increase fold of cell survival” value in the experiment with HT-29 cells [1] (H2O2 200 µM), in the experiment on HT-29 cells [1] (H2O2 250 µM) and in the experiment on HT-29 cells [1] (H2O2 300 µM) were at most 0.8 fold, at most 1.7 fold and “up to 3.6 fold”, respectively.

As for `O=C(NC(=[Se])Nc1ccc(C(F)(F)F)cc1)c1cc2ccccc2s1` [Compound 9d], the activity at 10 µM was found to be 61.2% with HT-29 cells [3], 84.5% with HTB-54 cells (HTB-54) and 91.1% in the experiment with MCF-7 cells (setting [6]). For the same molecule, the activity at 50 µM was found to be 36% with HT-29 cells [3], 79.3% in the experiment with HTB-54 cells (HTB-54) and 70.2% with MCF-7 cells (setting [7]). Also, the ABTS radical scavenging result in [4] is “below 60%”.

On to `Cc1ccc(NC(=[Se])NC(=O)c2ccc3c(c2)OCO3)cc1` [Compound 10b], for which the activity at 10 µM came out at 63.3% in the experiment on HT-29 cells [3], 16.4% in the experiment with HTB-54 cells (HTB-54) and 63% in the experiment with MCF-7 cells (setting [6]). Also, the activity at 50 µM with HT-29 cells [3] worked out at 43.9%; in the experiment with HTB-54 cells (HTB-54), 12%; in the experiment on MCF-7 cells (setting [7]), 7.4%. Further, the IC50 is 1.5 ± 1.8 µM in the experiment on HTB-54 cells (HTB-54, lung cancer cells, MTT, read-out: IC50 HTB-54); 1.5 to 7.3 µM in the experiment with HTB-54 cells (HTB-54 and H1299 pooled, read-out: IC50 on both lung cancer cells); 7.3 ± 0.3 µM with MCF-7 cells (Homo sapiens, MCF7, breast cancer cells, 48 h, MTT, read-out: IC50 MCF-7); over 100 µM with 184B5 cells; 11.9 ± 1 µM with T47D cells; 5.9 ± 1.4 µM in the experiment with H1299 cells. For the same molecule, the “reduction of cell growth” value is given as “at least 45%” in the experiment with MCF-7 cells (10 μM, 48 h) and “more than 85%” in the experiment on MCF-7 cells (50 μM, 48 h). Moreover, the “SI (selectivity index)” value with MCF-7 cells (IC50 (184B5)/IC50 (MCF-7)) is given as over 13.6. Further, the “ABTS radical scavenging activity compared with controls” value in experiment [4] is reported as “potent radical scavenging activity similar to Trolox”.

For the molecule `O=[Se]([O-])[O-].[Na+].[Na+]` [sodium selenite], the “DPPH radical scavenging activity” value in [5] is “only showed DPPH radical scavenging activity at pH 3.0”.
